In patent US20250270507A1, “METHODS FOR PRODUCING CARTILAGE AND BONES” (Murdoch Children's Research Institute, priority 2021, published 2025):

Experiments:
[1] = tested on: iPSC-derived chondronoids (MCRIi019-A and MCRIi018-B); test: Chondronoid maturation to hypertrophy with T3; assay type: cell-based, human
Protocol: Triiodothyronine (T3) is crucial for chondrocyte hypertrophy (Aghajanian et al., 2017) thus in some experiments differentiated chondrocytes were treated with 10 nM T3 (Sigma-Aldrich) for 10-21 days to induce chondrocyte hypertrophy. From day 20 (after 2 weeks of FGF2 treatment), differentiation/maturation continued in APEL2/5% PFHM (without FGF2) with medium replaced every 2-3 days. T3 was added when the pellets had consistent and even cartilage histology, which ranged between 4 and 6 weeks post-sclerotome chondrocyte differentiation. In some experiments, pellets were briefly treated with 0.25% trypsin/EDTA for 4 min at 37° C. with agitation to remove the small amount of non-cartilage tissue that occasionally remained on the surface of the chondrocyte pellets. These were allowed to recover in chondrocyte medium (APEL2/5% PFHM) for 1 week before analysis and/or T3 treatment and continued maturation.
(§1) Cultured and in vivo grafted pellet organoids were fixed overnight at 4° C. in Confix (Australian Biostain) neutral-buffered formalin, then […] washed in 70% ethanol, and paraffin-embedded. After fixing, some in vivo grafted pellets were washed in water for 10 minutes then decalcified in 14% EDTA, pH 7.4 at 4° C. for 5 days before embedding. Serial 5 μm sections cut from the pellet centers were mounted on Superfrost Plus slides (Menzel-Gläser) and heated at 55° C. overnight. Sections were treated with xylene to remove the paraffin wax and an ethanol series comprising 100%, 90%, 70%, 50% ethanol then water to rehydrate the sections. Sections were stained with toluidine blue to detect a cartilage proteoglycan matrix or safranin O/fast green for cartilage and bone following standard protocols. Osteogenic pellet sections were also stained with von Kossa to detect mineralization. Images were captured using a Leica DM 2000 LED microscope with Leica Application Suite (LAS) software version 4.9.0 or Zeiss Axio Imager Z2 with Zen 3.1 Blue Edition software.
Formalin fixed and paraffin-embedded sections were immunostained for collagen II (MAB8887; Sigma-Aldrich; 1:150 dilution), collagen I (LF68; Kerafast ENH018-FP; 1:100), collagen X (Cameron et al., 2015) (1:100), PRG4 (clone 9G3; Merck) (1:100) and Ku80 (Cell Signaling) (1:300). For collagen II staining, antigen retrieval used 2 mg/ml porcine pepsin (Sigma) freshly prepared in 1 M Tris/HCl, pH 2.0 for 30 minutes at 37° C., followed by digestion for 30 minutes at 37° C. with 0.2% hyaluronidase (Sigma-Aldrich) in PBS. Collagen X antigen retrieval involved heating to 60° C. in 10 mM Tris/1 mM EDTA/0.05% Tween-20, pH 9.0 (Tris/EDTA) for 30 min, cooling to room temperature for 30 minutes, followed by hyaluronidase digestion and collagen I and Ku80 staining followed antigen retrieval at 60° C. in Tris/EDTA as above. Sections to be stained with Ku80 were then permeabilized with 0.05% Triton X-100. Sections were blocked with 3% BSA in PBS for 1 hour at room temperature, then incubated with primary antibodies in 1% BSA in PBS for 16 hours at 4° C. Appropriate species specific Alexa Fluor 488 and 594 secondary antibodies (ThermoFisher) were diluted 1:200 in 1% BSA in PBS with 2.5 μg/ml DAPI, and sections incubated for 1 hour at room temperature. Slides were washed with PBS and coverslips mounted using Shandon Immumount (ThermoFisher). Images were captured as described above. For collagen X intracellular colocalization studies sections were treated with 0.2% hyaluronidase at 37° C. for 30 minutes then permeabilized with 0.05% Triton X-100. The collagen X antibody was used at 1:100, 58K (PA1-9000; ThermoFisher) at 1:50, GRP94 (PA5-18534; ThermoFisher) 1:200 and LAMP2 (ab25631; Abcam) 1:50. Images were captured on a Zeiss LSM900 Airyscan 2 confocal microscope with Zen 3.1 Blue Edition software. […]

MCRIi001-A-2 organoids = test: Osteogenic differentiation conditions in a second iPSC line; assay type: cell-based, human; conditions: 10 nM T3 for 14 days before osteogenic culture; both osteogenic conditions
Protocol: Hypertrophic chondrocytes can transdifferentiate into osteoblasts and osteocytes in vivo (Yang et al., 2014; Zhou et al., 2014). To recapitulate this later stage of endochondral bone formation in vitro, hypertrophic chondrocyte pellets in orbital culture were rinsed in PBS then cultured in DMEM, high glucose, GlutaMAX Supplement, pyruvate (ThermoFisher), 20% FBS (ThermoFisher), 10 mM β-glycerophosphate, 50 μg/ml ascorbic acid 2-phosphate, 50 μg/ml sodium ascorbate, 100 nM dexamethasone (osteogenic differentiation media) for up to three weeks. […] Media was replaced every 2-3 days.
as §1, with “Osteogenic pellet sections were also stained with von Kossa to detect mineralization. Images were captured using a Leica DM 2000 LED microscope with Leica Application Suite (LAS) software version 4.9.0 or Zeiss Axio Imager Z2 with Zen 3.1 Blue Edition software.” left out

[2] = T3 from day 48 to day 69, RNAseq

Compound: N[C@@H](Cc1cc(I)c(Oc2ccc(O)c(I)c2)c(I)c1)C(=O)O [T3, Triiodothyronine]
- spontaneous maturation to hypertrophic chondrocytes ([1]; T3 from day 48 to day 69): enhanced
- expression of canonical cartilage genes (COL2A1, COL9A1, COL11A1, SOX9, SOX6, SOX5) [1, 2]: downregulated
- expression of late hypertrophic cartilage markers (VEGFA, DMP1, HIF1A, MMP13, ALPL) [1, 2]: enhanced expression
- expression of ALPL, FOSL2, VEGFA, BMP7 and DMP1 ([1]; compared with spontaneous hypertrophy): only upregulated after stimulation
- chondronoid appearance by histology and immunostaining ([1]; day 69): appeared similar with and without T3
- expression of sentinel cartilage genes (COL11A1, COL9A1, COL9A2, COL9A3, EPYC, MATN1, LUM, COMP, EDIL3) ([1]; day 69+T3, core matrisome RNAseq): downregulated
- von Kossa staining in organoids pre-treated v not pre-treated (MCRIi001-A-2 organoids): more extensive and more intense von Kossa staining
